Laboratory results taken from PMC8619046, “ABCB1 and ABCG2 Control Brain Accumulation and Intestinal Disposition of the Novel ROS1/TRK/ALK Inhibitor Repotrectinib, While OATP1A/1B, ABCG2, and CYP3A Limit Its Oral Availability” (Pharmaceutics, 2021).
Values joined by “and” are separate entries in the source; they are usually repeats but may differ in a detail not shown here. Identical values can stand only once. Like-named read-outs stand apart in the source and are kept apart here.

What was measured:
endogenous canine ABCB1 [1] = target: T1, endogenous canine ABCB1 (Canis lupus familiaris, UniProt C0KKU9); assay: Transepithelial transport, parental MDCK-II cells; format: in vitro ADME; conditions: dog, pH 7.4, repotrectinib 5 µM, no inhibitor, read-out: efflux transport ratio r
T1 construct: the low-level endogenous canine ABCB1 present in MDCK-II cells; host or cells: parental MDCK-II cells (canine kidney)
T1 sequence (C0KKU9 1-1281): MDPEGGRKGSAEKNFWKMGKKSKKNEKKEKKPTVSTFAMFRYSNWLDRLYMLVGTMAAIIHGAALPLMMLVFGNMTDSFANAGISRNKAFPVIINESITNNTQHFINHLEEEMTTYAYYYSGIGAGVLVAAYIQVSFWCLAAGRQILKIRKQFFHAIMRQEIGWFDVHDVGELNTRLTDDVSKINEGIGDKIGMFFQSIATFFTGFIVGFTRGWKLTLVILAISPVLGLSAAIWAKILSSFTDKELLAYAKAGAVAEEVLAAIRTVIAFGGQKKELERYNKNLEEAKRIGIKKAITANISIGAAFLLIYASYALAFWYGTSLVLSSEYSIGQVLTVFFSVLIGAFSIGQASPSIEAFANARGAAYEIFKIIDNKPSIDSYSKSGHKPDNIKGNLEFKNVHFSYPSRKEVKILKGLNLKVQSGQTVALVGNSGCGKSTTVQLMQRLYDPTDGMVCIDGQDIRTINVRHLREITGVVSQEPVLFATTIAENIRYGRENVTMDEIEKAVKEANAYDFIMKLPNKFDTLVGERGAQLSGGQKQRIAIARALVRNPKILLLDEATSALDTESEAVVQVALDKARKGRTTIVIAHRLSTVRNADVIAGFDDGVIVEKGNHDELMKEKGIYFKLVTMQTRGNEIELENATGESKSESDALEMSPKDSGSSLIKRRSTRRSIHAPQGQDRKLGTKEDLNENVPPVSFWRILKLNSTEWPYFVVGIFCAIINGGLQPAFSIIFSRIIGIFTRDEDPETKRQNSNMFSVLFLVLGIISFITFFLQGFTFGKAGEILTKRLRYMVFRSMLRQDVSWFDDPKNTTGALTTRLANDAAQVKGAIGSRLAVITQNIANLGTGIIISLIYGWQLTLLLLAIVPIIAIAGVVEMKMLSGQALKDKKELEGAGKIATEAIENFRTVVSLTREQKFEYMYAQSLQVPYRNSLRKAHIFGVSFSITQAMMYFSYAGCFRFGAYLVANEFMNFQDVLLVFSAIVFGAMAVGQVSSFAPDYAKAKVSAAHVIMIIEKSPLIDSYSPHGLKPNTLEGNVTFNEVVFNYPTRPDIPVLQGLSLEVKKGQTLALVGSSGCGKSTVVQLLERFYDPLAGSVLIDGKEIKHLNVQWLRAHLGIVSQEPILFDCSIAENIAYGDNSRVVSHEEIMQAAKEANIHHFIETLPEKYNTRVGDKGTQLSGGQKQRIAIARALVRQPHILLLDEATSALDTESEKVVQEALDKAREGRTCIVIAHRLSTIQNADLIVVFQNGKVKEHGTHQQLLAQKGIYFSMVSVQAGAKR
Source text: (§1) Polarized Madin-Darby Canine Kidney (MDCK-II) cells (ECACC 00062107) stably transduced with either human (h) ABCB1, hABCG2 or mouse (m) Abcg2 cDNA were generated in our institute between 1995–2005. The proper identity and functionality, such as highly characteristic growth and drug transporter properties, including inhibitor sensitivity, were regularly checked in these epithelial cells. Mycoplasma routinely tested negative in these cells. The passage number was 10–15 when used in the transport experiments.
(§2) Transepithelial transport experiments were performed as previously described with 12-well plates (Transwell 3414, Corning Inc., Kennebunk, ME, USA) containing microporous polycarbonate membrane filters (3.0 µm pore size, 12 mm diameter). […]
(§3) After pre-incubation with 5 µM zosuquidar (ABCB1 inhibitor) and/or 5 µM Ko143 (ABCG2/Abcg2 inhibitor) in both compartments (when appropriate) for 1 h, the transport phase was initiated (t = 0) by replacing the medium in apical and basolateral compartments with fresh DMEM with 10% FBS and the appropriate inhibitor(s), and repotrectinib at 5 µM in the donor compartment. […] The active transport ratio r, calculated by dividing the amount of apically directed drug transport by basolaterally directed drug translocation after 8 h, was used to assess active transport of repotrectinib.

endogenous canine ABCB1 [2] = tested on: T2, endogenous canine ABCB1; assay: Transepithelial transport, parental MDCK-II cells; format: in vitro ADME; conditions: dog, pH 7.4, with zosuquidar 5 µM, 5 µM, + zosuquidar 5 µM, read-out: efflux transport ratio r
T2 construct: the low-level endogenous canine ABCB1 present in MDCK-II cells; host or cells: parental MDCK-II cells (canine kidney)
Source text: as §1, §2, §3

[3] = 2-h oral plasma pharmacokinetics and tissue distribution, male wild-type and Oatp1a/1b−/− mice; format: in vivo; conditions: 10 mg/kg oral; for concentration at 2 h / Cmax / AUC(0-t) / Tmax / Kp at 2 h: mouse; for Cmax / AUC(0-t) / Tmax: plasma; for AUC(0-t): read-out: AUC0–2h; for Tmax: median (range); for Fold change (SIWC % of dose) / Fold change ratio (SIWC (%)-to-AUC0–2h) / Fold change ratio (SIWC (%)-to-plasma) / Fold change ratio (liver-to-plasma) / Fold increase CSIWC / Fold increase Cliver / Fold increase AUC0–2h: vs wild-type; for Kp at 2 h: male, po, read-out: Liver-to-plasma ratio
Source text: Mice with similar average ages (and body weights) were randomly allocated in experimental groups as far as possible. Mice were maintained in a temperature-controlled and specific pathogen-free environment with a 12-h light and 12-h dark cycle and they received a standard diet (Transbreed, SDS Diets, Technilab-BMI, Someren, The Netherlands) and acidified water ad libitum. […] Given the objective main readout (repotrectinib plasma and tissue concentrations as measured by LC-MS/MS), no blinding method was applied.
Repotrectinib was dissolved in dimethyl sulfoxide (DMSO) at a concentration of 50 mg/mL. This stock solution was first diluted 3-fold with ethanol/polysorbate 80 (1/1; v/v), followed by further dilution with a 10 mM hydrochloric acid solution, yielding a dosing solution of 1 mg/mL, freshly prepared on the day of experiment. Final concentrations of the solvents in the administration solution were: 2%, 2%, 2%, and 94% (all v/v) for DMSO, ethanol, polysorbate 80, and 10 mM hydrochloric acid solution, respectively.
To minimize variation in absorption upon oral administration, mice were fasted for 2–3 h before repotrectinib (10 mg/kg body weight) was administered by gavage into the stomach at 10 µL/g body weight, with a blunt-ended needle. Tail vein serial blood samples were collected at 0.125, 0.25, 0.5, 1, 2 and 4 h using heparinized capillary tubes (Sarstedt, Nümbrecht, Germany) for the 8-h experiments. For the 4- and 2-h experiments, blood samplings were performed from the tail vein with the same schedule, but terminated at 2 and 1 h, respectively. Eight, four, or two hours after oral administration, mice were deeply anesthetized with 2–3% isoflurane, followed by cardiac puncture to collect blood in Eppendorf tubes containing heparin as an anticoagulant. Brain, liver, spleen, kidney, lung, small intestine, and testis were rapidly collected after sacrificing the mice by cervical dislocation. The small intestinal contents (SIC) were separated from small intestinal tissue (SI), which was flushed and rinsed with cold saline to remove any residual feces. Brain, liver, spleen, kidney, lung, SI, SIC, and testis were homogenized with 1, 3, 1, 2, 1, 3, 2, and 1 mL of 2% BSA (w/v), respectively. Plasma fraction was isolated from blood by centrifugation at 9000× g for 6 min at 4 °C. All samples were stored at −30 °C until analysis.
A sensitive and specific liquid chromatography-tandem mass spectrometry method using protein precipitation pre-treatment was adopted to quantify the concentration of repotrectinib in DMEM medium, plasma samples and tissue homogenates.
A non-compartmental model using the PKSolver add-in program for Microsoft Excel was adopted to calculate the pharmacokinetic parameters of repotrectinib. Oral availability was assessed by the plasma area under the curve (AUC), calculated using repotrectinib plasma concentration-time curves with the linear trapezoidal rule without extrapolating the infinity. Statistical testing was performed in Graphpad Prism7 (Graphpad Software, La Jolla, CA, USA). All data are presented as geometric means ± SD. Heteroscedastic data were log-transformed before applying statistical analysis. When differences between two groups were compared, the two-sided unpaired Student’s t test was used. One-way analysis of variance (ANOVA) was applied when multiple groups were compared, and the Bonferroni post hoc correction was used to accommodate multiple testing. Differences were considered statistically significant when P < 0.05.

[4] = Oatp1a/1b−/− (>99% FVB background), male Oatp1a/1b−/− mice
[5] = male Oatp1a/1b−/− mice vs wild-type
[6] = wild-type (>99% FVB background), male wild-type mice

**Q.** Which efflux ratio at 8 h, 5 µM (endogenous canine ABCB1 [1]) does the source give for `C[C@H]1CNC(=O)c2cnn3ccc(nc23)N[C@H](C)c2cc(F)ccc2O1` [repotrectinib] here?
**A.** The efflux ratio at 8 h, 5 µM was 2.5.

**Q.** And the efflux ratio at 8 h, 5 µM (endogenous canine ABCB1 [2])?
**A.** Its efflux ratio at 8 h, 5 µM is 1.

**Q.** What about the concentration at 2 h ([3]; FVB, small intestine with content, male wild-type mice, read-out: CSIWC) of the same compound?
**A.** Its concentration at 2 h is 84700 ± 24100 ng/g.

**Q.** And the concentration at 2 h ([3]; Oatp1a/1b−/− (>99% FVB background), liver, male Oatp1a/1b−/− mice, read-out: Cliver)?
**A.** Its concentration at 2 h is 15300 ± 1600 ng/g.

**Q.** And the Cmax [3, 4]?
**A.** Its Cmax is 5380 ± 520 ng/mL.

**Q.** And the AUC(0-t) [3, 4]?
**A.** The AUC(0-t) was 8960 ± 770 ng·h/mL.

**Q.** What about the Tmax [3, 4] of the same compound?
**A.** Its Tmax is 30 min.

**Q.** What about the concentration at 2 h ([3]; Oatp1a/1b−/− (>99% FVB background), small intestine with content, male Oatp1a/1b−/− mice, read-out: CSIWC) of the same compound?
**A.** Its concentration at 2 h is 121000 ± 29200 ng/g.

**Q.** What about the “liver-to-plasma ratio, fold reduction” value [3, 5] of the same compound?
**A.** Its value is 2.3 fold.

**Q.** And the “relative intestinal (SIWC) recovery corrected for plasma concentration, fold decrease” value [3, 5]?
**A.** The value was 2.8 fold.

**Q.** What about the “relative intestinal (SIWC) recovery corrected for plasma exposure (AUC0–2h), fold decrease” value [3, 5] of the same compound?
**A.** Its value is 1.9 fold.

**Q.** What about the “SIWC (% of dose)” value ([3]; male Oatp1a/1b−/− mice) of the same compound?
**A.** Its value is 21.3 ± 3.7 % of dose.

**Q.** And the “SIWC (%)-to-AUC0–2h ratio” value ([3]; male Oatp1a/1b−/− mice)?
**A.** The value was 2.40 ± 0.54 *** ·10^−3.

**Q.** And the “SIWC (%)-to-plasma ratio” value ([3]; male Oatp1a/1b−/− mice)?
**A.** Its value is 5.58 ± 1.09 *** ·10^−3.

**Q.** What about the “Fold change (SIWC % of dose)” value ([3]; male Oatp1a/1b−/− mice) of the same compound?
**A.** The value was 1.22.

**Q.** What about the “Fold change ratio (SIWC (%)-to-AUC0–2h)” value ([3]; male Oatp1a/1b−/− mice) of the same compound?
**A.** Its value is 0.52.

**Q.** And the “Fold change ratio (SIWC (%)-to-plasma)” value ([3]; male Oatp1a/1b−/− mice)?
**A.** Its value is 0.35.

**Q.** And the “Fold change ratio (liver-to-plasma)” value ([3]; male Oatp1a/1b−/− mice)?
**A.** Its value is 0.44.

**Q.** And the “Fold increase CSIWC” value ([3]; male Oatp1a/1b−/− mice)?
**A.** Its value is 1.43.

**Q.** And the “Fold increase Cliver” value ([3]; male Oatp1a/1b−/− mice)?
**A.** The value was 1.55.

**Q.** And the “Fold increase AUC0–2h” value ([3]; male Oatp1a/1b−/− mice, 10 mg/kg)?
**A.** Its value is 2.3 and 2.29.

**Q.** And the “SIWC (% of dose)” value ([3]; male wild-type mice)?
**A.** Its value is 17.4 ± 5.6 % of dose.

**Q.** What about the “SIWC (%)-to-AUC0–2h ratio” value ([3]; male wild-type mice) of the same compound?
**A.** Its value is 4.59 ± 1.04 ·10^−3.

**Q.** And the “SIWC (%)-to-plasma ratio” value ([3]; male wild-type mice)?
**A.** Its value is 15.8 ± 3.9 ·10^−3.

**Q.** What about the “Fold change (SIWC % of dose)” value ([3]; male wild-type mice) of the same compound?
**A.** Its value is 1.00.

**Q.** What about the “Fold change ratio (SIWC (%)-to-AUC0–2h)” value ([3]; male wild-type mice) of the same compound?
**A.** Its value is 1.00.

**Q.** What about the “Fold change ratio (SIWC (%)-to-plasma)” value ([3]; male wild-type mice) of the same compound?
**A.** Its value is 1.00.

**Q.** What about the “Fold change ratio (liver-to-plasma)” value ([3]; male wild-type mice) of the same compound?
**A.** The value was 1.00.

**Q.** What about the “Fold increase AUC0–2h” value ([3]; male wild-type mice) of the same compound?
**A.** Its value is 1.00.

**Q.** And the “Fold increase CSIWC” value ([3]; male wild-type mice)?
**A.** The value was 1.00.

**Q.** What about the “Fold increase Cliver” value ([3]; male wild-type mice) of the same compound?
**A.** The value was 1.00.

**Q.** And the Kp at 2 h ([3]; FVB, liver, 10 mg/kg, male Oatp1a/1b−/− mice)?
**A.** The Kp at 2 h was 4 ± 0.54.

**Q.** What about the Kp at 2 h ([3]; FVB, liver, 10 mg/kg, male wild-type mice) of the same compound?
**A.** The Kp at 2 h was 9.16 ± 1.53.

**Q.** And the concentration at 2 h ([3]; wild-type (>99% FVB background), liver, male wild-type mice, read-out: Cliver)?
**A.** Its concentration at 2 h is 9840 ± 1160 ng/g.

**Q.** What about the Cmax [3, 6] of the same compound?
**A.** Its Cmax is 2640 ± 990 ng/mL.

**Q.** And the AUC(0-t) [3, 6]?
**A.** The AUC(0-t) was 3920 ± 1290 ng·h/mL.

**Q.** And the Tmax [3, 6]?
**A.** The Tmax was 30 min.
